Marks after values point to notes of the source that are not given here.
Key:
[1] = test system: db/db mice (diabetic mouse model); assay: Separate db/db diabetic mouse study, q2d*15 up to day 28, recovery period day 29 to day 45; format: in vivo; conditions: for Blood Glucose AUC (Day 30-37) % Change vs Control / Blood Glucose AUC (Day 30-37) (mg/dL*days) Mean / Blood Glucose AUC (Day 38-45) % Change vs Control / Blood Glucose AUC (Day 38-45) (mg/dL*days) Mean: recovery period
Method: The study was performed in similar manner as above on diabetic mouse model. The animals were divided into three treatment groups—a diabetic control group, a test group and a semaglutide treatment group. The representative compounds of the present disclosure, Compound 1, Compound 13 and Compound 16, were injected subcutaneously at 3.04 or 6.078 nM dose (every alternate day up to day 28 (q2d*15). The same dosage regimen was administered in semaglutide treatment group. Measurements of blood glucose levels and body weight were done daily. % HbA1c, Insulin was measured on Day 0, day 14 and day 29. Cumulative food intake and body weight change was calculated on day 14 and 29. % HbA1c, Insulin data was analyzed by two way ANOVA followed by Bonferroni's posttests using PRISM (Graph Pad version 5.03). Whereas Blood Glucose AUC, Body weight change and Cumulative food intake data was analyzed by one way ANOVA followed by Bonferroni's posttests using PRISM (Graph Pad version 5.03). From day 29 to day 45, animals were kept on recovery period during which no drug treatment was given. Blood Glucose and Body weight was measured during this period. On day 45, Body weight Changes, % HbA1c, Insulin was measured.

[2] = Food intake and body weight recorded in the rat OGTT study; format: in vivo, rats; conditions: 1 mg/Kg; for Body Weight Change (%) Mean / Food Consumption (g) Mean: Exp. 1
Method: (§1) Animals were divided into three groups—a normal control group, a test group and a third semaglutide group, with 4 animals in each group. The animals were fasted for 12 hours before initiation of OGTT. To the test group animals, the Compound 1 was injected subcutaneously at 1 mg/kg dose. To the semaglutide group, a dose of 1 mg/kg was injected subcutaneously. After 22 hrs, 166 hrs and 334 hrs of subcutaneous injection of test drug or semaglutide, blood glucose was measured with blood glucose meter (time 0 measurements). All the animals were then given 2 g/kg of glucose solution orally. Blood glucose was measured at 20, 40, 60, 90 and 120 minutes following glucose challenge. Body weight and food intake was recorded. Blood glucose data was analyzed using Two way ANOVA followed by Bonferroni posttests using PRISM (Graph Pad version 5.03). Data of Blood glucose AUC0-120 min, was analyzed using t test.
as §1, with “animals,” for “animals, the”, “1, Compound 13 and Compound 16 were” for “1 was”, “compound” for “drug”

SD rats = assay: Oral glucose tolerance test (OGTT) in rats; single injection; 1 mg/kg; format: in vivo; parameters: Change in AUC (mg/dL*min): unit not given here; conditions: for Blood Glucose AUC (mg/dL*min) Mean: Exp. 1; for Change in AUC (mg/dL*min): Exp. 1, vs control group
Method: as §1
as §1, with “animals,” for “animals, the”, “1, Compound 13 and Compound 16 were” for “1 was”, “compound” for “drug”

[3] = earlier dose 3.04 nM (3.4 nM given for Compound 16)
[4] = recovery study, day 45, earlier dose 3.04 nM
[5] = recovery study, day 45, earlier dose 6.078 nM (6.0788 nM given for Compound 13)
[6] = OGTT, 1 mg/Kg dose, after 24 hrs

Compound 13: SEQ ID NO: 05, acylated with Moiety C (HXXXGTFTSDVSSYLXGQAAXEFXAWLVRGRGXX; lipidated side chain; (2)..(2) Xaa = Aib; (3)..(3) Xaa = absent.; (4)..(4) Xaa = Glu.; (16)..(16) Xaa = Glu.; (21)..(21) Lys is substituted; (24)..(24) Xaa is Ile.; (33)..(33) Xaa is Leu.; (34)..(34) Xaa is absent.)
Blood Glucose AUC (Day 0-29) % Change Vs Control ([1]; 3.04 nM, q2d*15): −43.86% | Blood Glucose AUC (Day 0-29) (mg/dL*days) Mean ([1]; 3.04 nM, q2d*15): 9515.4*** mg/dL*days | Body Weight Change Day 29, % Change vs Day 0 Mean ([1]; 3.04 nM, q2d*15): 1.2% | Cumulative Food Intake (g) Day 0-29 Mean ([1]; 3.04 nM, q2d*15): 75.2 g | Blood Glucose AUC (Day 0-29) % Change Vs Control ([1]; 6.078 nM, q2d*15): −50.13% | Blood Glucose AUC (Day 0-29) (mg/dL*days) Mean ([1]; 6.078 nM, q2d*15): 8451.7***## mg/dL*days | Body Weight Change Day 29, % Change vs Day 0 Mean ([1]; 6.078 nM, q2d*15): −1.1% | Cumulative Food Intake (g) Day 0-29 Mean ([1]; 6.078 nM, q2d*15): 70.4 g | % HbA1C Mean ([1]; Day 0, 3.04 nM, q2d*15): 7.7% | Insulin (ng/mL) Mean ([1]; Day 0, 3.04 nM, q2d*15): 21.7 ng/mL | % HbA1C Mean ([1]; Day 0, 6.078 nM, q2d*15): 7.83% | Insulin (ng/mL) Mean ([1]; Day 0, 6.078 nM, q2d*15): 26.2 ng/mL | % HbA1C Mean ([1]; Day 14, 3.04 nM, q2d*15): 6.6* % | Insulin (ng/mL) Mean ([1]; Day 14, 3.04 nM, q2d*15): 41.8 ng/mL | % HbA1C Mean ([1]; Day 14, 6.078 nM, q2d*15): 6.00 *** % | Insulin (ng/mL) Mean ([1]; Day 14, 6.078 nM, q2d*15): 61.2*** ng/mL | % HbA1C Mean ([1]; Day 29, 3.04 nM, q2d*15): 6.4 *** % | Insulin (ng/mL) Mean ([1]; Day 29, 3.04 nM, q2d*15): 54.4** ng/mL | % HbA1C Mean ([1]; Day 29, 6.078 nM, q2d*15): 5.64 *** % | Insulin (ng/mL) Mean ([1]; Day 29, 6.078 nM, q2d*15): 59.4*** ng/mL | HbA1c, blood glucose, food consumption and body weight vs control ([1]; about 3 nM and 6 nM dose): significant reduction | Blood Glucose AUC (Day 30-37) % Change vs Control [1, 3]: −27.93% | Blood Glucose AUC (Day 30-37) (mg/dL*days) Mean [1, 3]: 2588.7** mg/dL*days | Blood Glucose AUC (Day 38-45) % Change vs Control [1, 3]: −5.57% | Blood Glucose AUC (Day 38-45) (mg/dL*days) Mean [1, 3]: 3401.0 mg·days/dL | Blood Glucose AUC (Day 30-37) % Change vs Control ([1]; earlier dose 6.078 nM): −19.94% | Blood Glucose AUC (Day 30-37) (mg/dL*days) Mean ([1]; earlier dose 6.078 nM): 2875.7 mg·days/dL | Blood Glucose AUC (Day 38-45) % Change vs Control ([1]; earlier dose 6.078 nM): −6.68% | Blood Glucose AUC (Day 38-45) (mg/dL*days) Mean ([1]; earlier dose 6.078 nM): 3361.0 mg·days/dL | % HbA1C Mean [1, 4]: 7.5% | Delta HbA1C vs. DC [1, 4]: −1.0 | Insulin (ng/mL) Mean [1, 4]: 31.2 ng/mL | % HbA1C Mean [1, 5]: 7.3% | Delta HbA1C vs. DC [1, 5]: −1.2 | Insulin (ng/mL) Mean [1, 5]: 34.3 ng/mL | Body Weight % Change vs Day 45 Mean ([1]; recovery study, earlier dose 3.04 nM): 6.6% | Body Weight % Change vs Day 45 Mean ([1]; recovery study, earlier dose 6.078 nM (6.0788 nM given for Compound 13)): 5.5% | Body Weight Change (%) Mean ([2]; 48 h): −10.2% | Food Consumption (g) Mean ([2]; 48 h): 8.4 g | Body Weight Change (%) Mean ([2]; 154 h): 4.5% | Food Consumption (g) Mean ([2]; 154 h): 62.3 g | Body Weight Change (%) Mean ([2]; 324 h): 8.2% | Food Consumption (g) Mean ([2]; 324 h): 82.44 g | food consumed vs animals administered with semaglutide ([2]; text on Table 8): consumed significantly less food | Blood Glucose AUC (mg/dL*min) Mean (SD rats; OGTT, 1 mg/Kg, 22 hr): 2795.0 mg·min/dL | Change in AUC (mg/dL*min) (SD rats; OGTT, 1 mg/Kg, 22 hr): −81.2 | Blood Glucose AUC (mg/dL*min) Mean (SD rats; OGTT, 1 mg/Kg, 168 hr): 6950.0 mg·min/dL | Change in AUC (mg/dL*min) (SD rats; OGTT, 1 mg/Kg, 168 hr): −59.5 | Blood Glucose AUC (mg/dL*min) Mean (SD rats; OGTT, 1 mg/Kg, 336 hr): 11368.0 mg·min/dL | Change in AUC (mg/dL*min) (SD rats; OGTT, 1 mg/Kg, 336 hr): −31.6 | reduction in blood glucose AUC (SD rats; after 168 hrs of injection, 1 mg/kg): about 60%

Compound 7: SEQ ID NO: 05, Moiety B; liraglutide with 2nd amino acid Ala replaced with Aib and additional 32nd amino acid Leu (HXXXGTFTSDVSSYLXGQAAXEFXAWLVRGRGXX; (2)..(2) Xaa = Aib; (3)..(3) Xaa = absent.; (4)..(4) Xaa = Glu.; (16)..(16) Xaa = Glu.; (21)..(21) Lys is substituted; (24)..(24) Xaa is Ile.; (33)..(33) Xaa is Leu.; (34)..(34) Xaa is absent.)
% Glucose Reduction (Blood Glucose AUC0-120 min) (SD rats; [6]): 71.9% | Comp/std Liraglutide (ratio of % glucose reduction) (SD rats; [6]): 1.73 | blood glucose lowering effect vs liraglutide (SD rats; OGTT, 1 mg/Kg, at 24 hrs): significantly higher than liraglutide
